Results from patent US20030165475A1, “Non-lethal methods for conditioning a recipient for bone marrow transplantation” (priority 1993, published 2003).

Test system: NOD mice
Test: Partial conditioning for HSC chimerism in NOD mice
Format: in vivo, mouse
From the text: Often, higher doses of donor cells are required for engraftment as well as higher doses of conditioning to make space. […] One of the goals of the present studies was to identify a strategy to overcome the alloresistance to chimerism in NOD mice by further reducing the irradiation dose for conditioning.
The animals were transplanted with 55×10^6 or 60×10^6 B10.BR/SgnSnJ bone marrow cells, respectively.

[1] = 600 cGy TBI + CyP 50 mg/kg i.p. two days after BMT, 60 × 10^6 B10.BR cells

O=P1(N(CCCl)CCCl)NCCCO1 (stereo not shown) [CyP, cyclophosphamide]
ANIMALS WITH ENGRAFTMENT (600 cGy TBI + 100 μg mAb i.v. day 5, 3, 1 prior, or + 200 mg/kg CyP i.p. two days after, 55 or 60 × 10^6 B10.BR cells): 4/4 | donor chimerism [1]: 91.5% | engraftment [1]: 100% | animals engrafted (600 cGy TBI + single dose CyP 200 mg/kg): 100%
